Source: patent US8815814B2, “Cosmetic composition containing oligopeptides” (Cognis IP Management GmbH, priority 2010, dated 2014)
Residues, ends and D or L forms follow the SMILES beside them.

Experiments:
[1] = system: glutaredoxin-2 gene (GLRX2); test: GLRX2 mRNA level by qRT-PCR in human dermal fibroblasts; format: cell-based; conditions: peptide at 1.0 μg/ml, 6 hours
Experimental: The peptide Acetyl-Val-Leu-Leu-Lys (SEQ ID NO:1) was incubated on human dermal fibroblasts cultured in vitro and the expression of the glutaredoxin-2 gene (GLRX2), involved in cellular anti-oxidative defenses) was measured using a qRT-PCR method.
The human dermal fibroblasts were cultured within growth medium enriched with FCS at 10% and incubated for 1 day at 37° C. Then the growth medium was exchanged for a standard medium without FCS with or without the Acetyl-Val-Leu-Leu-Lys (SEQ ID NO:1) peptide at 1.0 μg/ml. Cells were incubated for 6 hours at 37° C. before extraction of total RNA. The level of GLRX2 mRNAs was evaluated comparatively to the level of HPRT1 (hypoxanthine phosphoribosyltransferase 1) mRNA as housekeeping gene (qRT-PCR method) for each condition.
The results were calculated through the level of GLRX2 mRNA measured in the control condition (without peptide treatment) as 100% and presented as a mean +/−SEM from 3 assays in duplicated.

tropoelastin gene (ELN) = test: ELN mRNA level by qRT-PCR in human dermal fibroblasts; format: cell-based; conditions: peptide at 1.0 μg/ml; for level of ELN mRNA (control = 100%): vs EEF1A1 housekeeping gene, mean +/− SEM
Experimental: The peptide Acetyl-Val-Leu-Leu-Lys (SEQ ID NO:1) was incubated on human dermal fibroblasts cultured in vitro and the expression of the tropoelastin gene (ELN) was measured using a qRT-PCR method.
The human dermal fibroblasts were cultured within growth medium enriched with FCS at 10% and incubated for 1 day at 37° C. Then the growth medium was exchanged for a standard medium without FCS but with or without the Acetyl-Val-Leu-Leu-Lys (SEQ ID NO:1) peptide at 1.0 μg/ml. Cells were incubated for 24 hours, 48 hours or 72 hours at 37° C. before extraction of total RNA. The level of ELN mRNAs in the different conditions was evaluated comparatively to the level of EEF1A 1 mRNA as housekeeping gene (qRT-PCR method) for each condition. The results were calculated through the level of ELN mRNA measured in the control condition (without peptide treatment) as 100% and presented as a mean+/−SEM from 3 assays in duplicate.

[2] = system: collagen type XIV gene (COL14A1); test: COL14A1 mRNA level by qRT-PCR in human dermal fibroblasts; format: cell-based; conditions: peptide at 1.0 μg/ml; for level of COL14A1 mRNA (control = 100%): vs EEF1A1 housekeeping gene, mean +/− SEM
Experimental: The peptide Acetyl-Val-Leu-Leu-Lys (SEQ ID NO:1) was incubated on human dermal fibroblasts cultured in vitro and the expression of the collagen type XIV gene (COL14A1) was measured using a quantitative reverse-transcription and polymerase chain reaction (qRT-PCR) method.
The human dermal fibroblasts were cultured within growth medium enriched with FCS at 10% and incubated for 1 day at 37° C. Then the growth medium was exchanged for a standard medium without FCS but with or without the Acetyl-Val-Leu-Leu-Lys (SEQ ID NO:1) peptide at 1.0 μg/ml. Cells were then incubated for 24 hours, 48 hours or 72 hours at 37° C. before extraction of total RNA. The level of COL14A1 mRNAs in the different conditions was evaluated comparatively to the level of EEF1A1 mRNA as housekeeping gene (qRT-PCR method) for each condition.
The results were calculated through the level of COL14A1 mRNA measured in the control condition (without peptide treatment) for the different incubation times as 100% and presented as a mean+/−SEM from 3 or 5 assays in duplicate.

collagen type I = test: Collagen type I immuno-staining (ICC) in cultured human dermal fibroblasts; format: cell-based; conditions: peptide at 5.1 μg/ml; for % of staining occupation (collagen type I immuno-staining): human dermal fibroblasts, 72 hours incubation, sodium ascorbyl at 20 μg/ml, control 10.68 +/− 1, mean +/− SEM, 6 measures
Experimental: The peptide Acetyl-Val-Leu-Leu-Lys (SEQ ID NO:1)was incubated on human dermal fibroblasts cultured in vitro and the expression of the collagen type I was measured using an immunocytochemistry (ICC) method.
The human dermal fibroblasts were cultured within growth medium enriched with Foetal Calf Serum (FCS) at 10% and incubated for 2 days at 37° C. Then the growth medium was exchanged for a standard medium containing sodium ascorbyl at 5 μg/ml with FCS at 1% and with or without the Acetyl-Val-Leu-Leu-Lys (SEQ ID NO:1)peptide at 5.1 μg/ml. A positive control condition with sodium ascorbyl at 20 μg/ml was performed. Cells were incubated for 72 hours at 37° C. with the peptide. Cultured human dermal fibroblasts were fixed by acetone for 10 minutes at −20° C. and incubated for 1 hour at room temperature with a primary antibody against collagen type I [Abcam] diluted at 1/250. Fluorescein isothiocyanate (FITC) labelled secondary antibody [CliniSciences, France] was used for revelation. The obtained immuno-staining was observed using a confocal laser scanning microscope [TCS SPE, Leica, France] and quantified by an image analyzer [Quantimet Q5001W, Leica, France]. The staining occupation was evaluated. The results were presented as a mean +/−SEM (Standard Error of Mean) from 6 measures.

injured rabbit cornea = conditions: Hara et al., Exp Eye Res, 2001; cited from earlier work
[3] = system: epithelial cells from rabbit cornea; conditions: Hara et al., Exp Eye Res, 2001; cited from earlier work

Compound	effect on the level of GLRX2 gene expression (in words) [1]	level of GLRX2 mRNA (control = 100%) ([1]; vs HPRT1 housekeeping gene, mean +/− SEM)	effect on the level of ELN gene expression (in words) (tropoelastin gene (ELN))	level of ELN mRNA (control = 100%) (tropoelastin gene (ELN); treatment duration 24 hours)	level of ELN mRNA (control = 100%) (tropoelastin gene (ELN); treatment duration 48 hours)	level of ELN mRNA (control = 100%) (tropoelastin gene (ELN); treatment duration 72 hours)	level of COL14A1 mRNA (control = 100%) ([2]; treatment duration 24 hours)	level of COL14A1 mRNA (control = 100%) ([2]; treatment duration 48 hours)	level of COL14A1 mRNA (control = 100%) ([2]; treatment duration 72 hours)	effect on the level of COL14A1 gene expression (in words) ([2]; detected after 24 hours, maintained during 3 days)	% of staining occupation (collagen type I immuno-staining) (collagen type I)	effect on the level of collagen type I (in words) (collagen type I; compared with sodium ascorbyl at 20 μg/ml)	wound healing activity on injured rabbit cornea (in words) (injured rabbit cornea)	proliferation of epithelial cells from rabbit cornea (in words) [3]
CC(=O)N[C@H](C(=O)N[C@@H](CC(C)C)C(=O)N[C@@H](CC(C)C)C(=O)N[C@@H](CCCCN)C(=O)O)C(C)C [Acetyl-Val-Leu-Leu-Lys, N-Acetyl-Val-Leu-Leu-Lys-OH] (Ac-VLLK-OH)	specifically increased	145 +/− 20 (*) %	specifically and significantly increased	127 +/− 11 (*) %	143 +/− 10 (*) %	217 +/− 49 (*) %	175 +/− 23 (*) %	220 +/− 32 (*) %	213 +/− 27 (*) %	specifically and significantly increased	31.07 +/− 2.22 (**) %	significantly increased	–	–
Sodium ascorbyl [reference compound]	–	–	–	–	–	–	–	–	–	–	18.01 +/− 1.07 (**) %	–	–	–
Val-Leu-Leu-His (VLLH; tetrapeptide)	–	–	–	–	–	–	–	–	–	–	–	–	significant wound healing activity	stimulate proliferation
